In ChEMBL document CHEMBL1159283, “Further brominated bis- and tris-indole alkaloids from the deep-water New Caledonian marine sponge Orina Sp” (J Nat Prod, 1995):
Active and inactive are the calls of the source. The calls are words filed in the database; no cut-off is given here.

Legend:
[1] = Binding affinity to regulatory site of NMDA receptor at 5 ug/mL by glycine binding assay
[2] = Binding affinity to VIP receptor at 5 ug/mL
[3] = system: BOWES; assay: Binding affinity to galanin receptor in human BOWES cells at 5 ug/mL; type: cell-based
[4] = Binding affinity to neurotensin receptor at 5 ug/mL
[5] = molecular target: Calcitonin gene-related peptide type 1 receptor (Homo sapiens) (UniProt Q16602); assay: Binding affinity to CGRP receptor at 5 ug/mL
Sequence of Calcitonin gene-related peptide type 1 receptor (Homo sapiens) (Q16602 whole entry): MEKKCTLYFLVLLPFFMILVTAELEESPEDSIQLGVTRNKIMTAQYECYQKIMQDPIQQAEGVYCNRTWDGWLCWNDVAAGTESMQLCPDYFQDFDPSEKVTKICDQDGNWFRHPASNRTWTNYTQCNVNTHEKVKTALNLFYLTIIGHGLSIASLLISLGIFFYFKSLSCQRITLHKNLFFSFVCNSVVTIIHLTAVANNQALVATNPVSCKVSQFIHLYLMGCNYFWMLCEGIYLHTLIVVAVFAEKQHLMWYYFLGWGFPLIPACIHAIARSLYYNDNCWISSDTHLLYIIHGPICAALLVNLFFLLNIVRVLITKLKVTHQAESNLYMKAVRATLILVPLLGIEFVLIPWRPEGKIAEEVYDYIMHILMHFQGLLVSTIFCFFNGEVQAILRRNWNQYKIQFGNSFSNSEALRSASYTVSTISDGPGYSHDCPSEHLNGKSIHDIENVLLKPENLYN

[6] = Antagonist activity at serotonin receptor in guinea pig ileum assessed as inhibition of serotonin-induced contraction; type: functional, tissue-based; conditions: Cavia porcellus
[7] = molecular target: Somatostatin receptor (Rattus norvegicus) (UniProt Q7TT86); assay: Displacement of [125I]somatostatin from somatostatin receptor in rat cerebral cortices membrane at 5 ug/mL; type: cell membranes
Sequence of Somatostatin receptor (Rattus norvegicus) (Q7TT86 as listed by the source): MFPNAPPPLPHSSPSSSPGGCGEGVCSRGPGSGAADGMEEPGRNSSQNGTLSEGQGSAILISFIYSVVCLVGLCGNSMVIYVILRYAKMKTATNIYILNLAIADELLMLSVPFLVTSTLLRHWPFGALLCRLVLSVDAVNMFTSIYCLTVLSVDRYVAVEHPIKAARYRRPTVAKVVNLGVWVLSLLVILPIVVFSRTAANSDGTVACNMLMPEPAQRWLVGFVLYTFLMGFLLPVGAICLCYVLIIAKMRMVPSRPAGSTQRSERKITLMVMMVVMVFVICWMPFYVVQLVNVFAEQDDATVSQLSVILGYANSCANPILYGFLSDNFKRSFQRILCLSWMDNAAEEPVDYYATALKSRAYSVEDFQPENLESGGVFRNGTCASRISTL

[8] = organism: Rattus norvegicus; assay: Displacement of [3H]NPY from neuropeptide Y receptor in rat cerebral cortices membrane at 5 ug/mL; type: cell membranes
[9] = molecular target: T1, B2 bradykinin receptor (Homo sapiens) (UniProt P30411); assay: Displacement of [3H]bradykinin from bradykinin B2 receptor expressed in baculovirus-infected SF21 cells at 5 ug/mL
T1 sequence (whole entry): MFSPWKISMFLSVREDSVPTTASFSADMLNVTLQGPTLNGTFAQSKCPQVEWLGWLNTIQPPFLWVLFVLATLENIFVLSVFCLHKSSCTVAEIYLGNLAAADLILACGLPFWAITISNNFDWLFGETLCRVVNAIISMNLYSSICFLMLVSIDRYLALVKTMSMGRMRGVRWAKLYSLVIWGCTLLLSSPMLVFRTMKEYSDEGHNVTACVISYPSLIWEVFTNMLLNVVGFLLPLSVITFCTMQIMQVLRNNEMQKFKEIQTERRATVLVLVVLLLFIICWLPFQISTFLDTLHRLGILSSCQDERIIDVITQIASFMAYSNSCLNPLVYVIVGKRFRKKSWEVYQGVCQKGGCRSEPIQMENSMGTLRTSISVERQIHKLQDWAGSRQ

[10] = molecular target: T2, Neuromedin-K receptor (Homo sapiens) (UniProt P29371); assay: Binding affinity to NK3 tachykinin receptor at 5 ug/mL by senktide binding assay
T2 sequence (whole entry): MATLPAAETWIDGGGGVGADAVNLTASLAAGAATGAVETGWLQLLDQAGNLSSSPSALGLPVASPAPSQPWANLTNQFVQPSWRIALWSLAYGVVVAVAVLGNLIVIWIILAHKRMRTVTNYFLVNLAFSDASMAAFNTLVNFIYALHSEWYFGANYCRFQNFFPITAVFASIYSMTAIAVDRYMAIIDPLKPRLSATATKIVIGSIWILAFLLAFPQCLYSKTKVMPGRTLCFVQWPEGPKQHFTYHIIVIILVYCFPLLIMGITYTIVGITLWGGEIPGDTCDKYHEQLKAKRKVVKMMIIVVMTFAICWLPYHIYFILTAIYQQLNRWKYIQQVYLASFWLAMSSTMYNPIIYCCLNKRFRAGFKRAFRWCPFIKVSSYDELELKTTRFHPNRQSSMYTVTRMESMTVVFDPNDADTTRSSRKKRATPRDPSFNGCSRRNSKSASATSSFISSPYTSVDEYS

[11] = Binding affinity to quisqualate site of glutamate receptor at 5 ug/mL by AMPA binding assay

## NCCc1c(C(CN)c2c[nH]c3cc(Br)ccc23)[nH]c2cc(Br)ccc12 (racemic)
[1]
  Activity: inactive
[2]
  Activity: inactive
[3]
  Activity: inactive
[4]
  Activity: inactive
[5]
  Activity: inactive
[6]
  IC50: 10 µM
[7]
  Activity: 91%
[8]
  inhibition: 67%
[9]
  inhibition: 89%
[10]
  Activity: inactive
[11]
  Activity: inactive

## NCCc1c(C(CN)c2c[nH]c3cc(Br)ccc23)[nH]c2ccc(O)c(C(CN)c3c[nH]c4cc(Br)ccc34)c12 (racemic)
[6]
  IC50: 2 µM

## NCCc1c(C(CN)c2c[nH]c3cc(Br)ccc23)[nH]c2ccc(O)cc12 (racemic)
[1]
  Activity: inactive
[2]
  Activity: inactive
[3]
  Activity: inactive
[4]
  Activity: inactive
[5]
  Activity: inactive
[6]
  IC50: 50 µM
[7]
  Activity: 87%
[8]
  inhibition: 63%
[9]
  inhibition: 63%
[10]
  Activity: inactive
[11]
  Activity: inactive

## NCCc1c[nH]c2ccc(O)c(C(CN)c3c[nH]c4cc(Br)ccc34)c12 (racemic)
[6]
  IC50: 100 µM

## NCCc1c(C(CN)c2c[nH]c3cc(Br)ccc23)[nH]c2cc(C(CN)c3c[nH]c4cc(Br)ccc34)c(O)cc12 (racemic)
[1]
  Activity: inactive
[2]
  Activity: inactive
[3]
  Activity: inactive
[4]
  Activity: inactive
[5]
  Activity: inactive
[7]
  Activity: Active
[10]
  Activity: inactive
[11]
  Activity: inactive

## NCCc1c(C(CN)c2c[nH]c3cc(Br)ccc23)[nH]c2cc(C(CN)c3c[nH]c4cc(Br)ccc34)c(O)cc12 (stereo in doubt; form 1)
[8]
  inhibition: 90%
[9]
  inhibition: 100%

## NCCc1c(C(CN)c2c[nH]c3cc(Br)ccc23)[nH]c2cc(C(CN)c3c[nH]c4cc(Br)ccc34)c(O)cc12 (stereo in doubt; form 2)
[8]
  inhibition: 62%
[9]
  inhibition: 93%
